Laboratory results from patent US20260014264A1, “SPECIFIC TOPOISOMERASE INHIBITOR, USE AS ANTIBODY DRUG CONJUGATE, AND PREPARATION METHOD THEREFOR” (BIOBRICS LIFE SCIENCE (NANTONG) CO., LTD., priority 2022, published 2026).

tested on: human non-small cell lung cancer cell line A549; assay: In vitro cytotoxicity test of released camptothecin analogs (Luminescent Cell Viability Assay); format: cell-based; details: A549, 120 h, read-out: IC50 (A549, nM)
Experimental: Stable transfection of high expression Her2, high expression SK-BR-3 and BT-474 human breast cancer cells, NCI-N87 human gastric cancer cells and human non-small cell lung cancer cell line A549 were selected as the cell lines for in vitro activity detection in this experiment, and the killing dose and effect of different antibody coupled drugs on cells were observed. Preliminary selection of plate density for each cell type: 2×10^3 cells/well, followed by cytotoxicity assay after 16-24 h; Next, the antibody coupled drug prepared in Example 2 was tested with a final concentration set at 5000 nM as the starting concentration, and a series of 10 concentrations (4-10 fold dilution) were designed for 5000-0.006 nM. […] The IC50 was calculated after reading the fluorescence data.
The linkers in the present invention are all cleavable linkers. Therefore, the released camptothecin analogs were first subjected to in vitro cytotoxic activity testing, and the results are shown in the table below.

Point of comparison: `CC[C@@]1(O)C(=O)OCc2c1cc1n(c2=O)Cc2c-1nc1cc(F)c(C)c3c1c2[C@@H](NC(=O)CO)CC3` [Dxd, reference compound], IC50 45.1 nM. Against it:
- CC[C@@]1(O)C(=O)OCc2c1cc1n(c2=O)Cc2c-1nc1cc(F)c(NC(=O)CO)c3c1c2CCC3 [Compound A1-FD] — 1.5-fold higher, 69.1 nM

same assay, conditions: A549 cells, 120 hours, chemiluminescence cell viability, read-out: IC50 (A549)

Point of comparison: `CC[C@@]1(O)C(=O)OCc2c1cc1n(c2=O)Cc2c-1nc1cc(F)c(NC(=O)C(C)O)c3c1c2CCC3` (stereo partly shown) [Compound A2-FD], IC50 0.53 nM. Against it:
- CC[C@@]1(O)C(=O)OCc2c1cc1n(c2=O)Cc2c-1nc1cc(F)c(NC(=O)C(O)C3CC3)c3c1c2CCC3 (stereo partly shown) [Compound A3-FD] — 10-fold higher, 5.5 nM
- CC[C@@]1(O)C(=O)OCc2c1cc1n(c2=O)Cc2c-1nc1cc(F)c(NC(=O)C3CC(O)C3)c3c1c2CCC3 (stereo partly shown) [Compound A11-FD] — 4-fold higher, 2.1 nM
- CC[C@@]1(O)C(=O)OCc2c1cc1n(c2=O)Cc2c-1nc1cc(F)c(NC(=O)C3CC3O)c3c1c2CCC3 (stereo partly shown) [Compound A9-FD] — 48-fold higher, 25.2 nM
- CC[C@@]1(O)C(=O)OCc2c1cc1n(c2=O)Cc2c-1nc1ccc(NC(=O)CO)c3c1c2CCC3 [Compound A16-FD] — 150-fold higher, 79.5 nM
